Experimental data from patent US20100160425A1, “ANTI-ALLERGIC AGENT AND BEVERAGE/FOOD, PREPARATION FOR EXTERNAL APPLICATION OR COSMETIC COMPRISING THE AGENT” (priority 2006, published 2010).

Test system: mouse bone marrow-derived cultured mast cells (BMMC)
Experiment: Inhibition of histamine release from IgE-sensitized, DNP-HSA-stimulated mouse mast cells
Type: cell-based
Details: for Ratio of Histamine Release Inhibiting Effect %: sample at 10 μg/ml, relative to distilled water control
Procedure: In order to determine the anti-allergic activity (type I allergy), inhibitory activity on the release of histamine from mouse mast cells was used as an indicator. The histamine release inhibitory effect was investigated by using mouse bone marrow-derived cultured mast cells (BMMC). The cells were cultured in a RPMI1640 medium supplemented with 10% heat inactivated FBS (fetal bovine serum), 3 ng/ml of interleukin-3 (IL-3), 5 mM […], and 50 μM 2-mercaptoethanol. The cells (1×10^7 cells/ml) were sensitized anti-DNP mouse IgE antibody overnight, then, on the following day, suspended in a Tyrode solution and incubated with the test samples for 10 minutes, degranulation was induced by adding DNP-HSA (antigen) (20 minutes), and the amount of histamine in the supernatant fluid was determined using liquid chromatography. An LC-10A (manufactured by Shimadzu Corporation) was used as the measuring instrument, and […] was used as the column. Isocratic analysis was conducted under the following conditions: flow rate of 0.5 ml/min; injection amount of 20 μl; temperature of the column oven of 37° C.; detector RF ([…], em. 430 nm). The anti-allergic activity was determined to be high when the relative value to distilled water, which was a control, was lower.

| Compound | Ratio of Histamine Release Inhibiting Effect % [%] | anti-allergic activity (among the compounds of general formula (1), summary statement) | histamine release inhibiting effect relative to that of EGCG3″Me (beverages containing 2 μg/ml and 10 μg/ml, FIG. 2) | histamine release inhibiting effect when added to Yabukita hot-water extract (final additive concentration 0.1 to 50 μg/ml in Yabukita hot-water extract, FIG. 4) |
| --- | --- | --- | --- | --- |
| epigallocatechin-3-O-(3-O-methyl)gallate [EGCG3″Me, reference compound] | 29.6 |  |  |  |
| COc1cc(C(=O)O[C@@H]2Cc3c(O)cc(O)cc3O[C@@H]2c2ccc(O)c(O)c2)cc(O)c1O [ECG3″Me, epictechin-3-O-(3-O-methyl)gallate] | 46.79 | especially strong anti-allergic activity | approximately 1.5 times | can increase the anti-allergic activity more than EGCG3″Me |
| epigallocatechin-3-O-gallate [EGCG, reference compound] | 7.63 |  |  |  |
